Test results as given in patent publication US8481540B2, “Inhibitors of bruton's tyrosine kinase” (Hoffmann-La Roche Inc., priority 2010, dated 2013).
Where two headings read alike, the source gives them in different places.

Test system: B cells in human blood
Assay: Inhibition of B cell activation in whole blood measured by CD69 expression
Type: cell-based
Settings: read-out: Human Whole Blood
Experimental: Inhibition of B Cell Activation in Whole Blood Measured by CD69 Expression
A procedure to test the ability of Btk inhibitors to suppress B cell receptor-mediated activation of B cells in human blood is as follows:
Human whole blood (HWB) is obtained from healthy volunteers, with the following restrictions: 24 hr drug-free, non-smokers. Blood is collected by venipuncture into Vacutainer tubes anticoagulated with sodium heparin. Test compounds are diluted to […] the desired starting drug concentration in PBS (20×), followed by three-fold serial dilutions in 10% DMSO in PBS to produce a nine point dose-response curve. 5.5 μl of each compound dilution is added in duplicate to a 2 ml96-well V bottom plate (Analytical Sales and Services, #59623-23); 5.5 μl of 10% DMSO in PBS is added to control and no-stimulus wells. HWB (100 μl) is added to each well, and after mixing the plates are incubated at 37 C, 5% CO2, 100% humidity for 30 minutes. Goat F(ab′)2 anti-human IgM (Southern Biotech, #2022-14) (10 μl of a […] solution, 50 μg/ml final concentration) is added to each well (except the no-stimulus wells) with mixing and the plates are incubated for an additional 20 hours.
At the end of the 20 hour incubation, samples are incubated with florescent-probe-labeled anti-bodies (15 μl PE Mouse anti-Human CD20, BD Pharmingen, #555623, and/or 20 ul APC Mouse anti-Human CD69, BD Pharmingen #555533) for 30 minutes, at 37 C, 5% CO2, 100% humidity. Included are induced control, unstained and single stains for compensation adjustments and initial voltage settings. Samples are then lysed with 1 ml of 1× Pharmingen Lyse Buffer (BD Pharmingen #555899), and plates are centrifuged at 1800 rpm for 5 minutes. Supernatants are removed via suction and the remaining pellets are lysed again with another 1 ml of 1× Pharmingen Lyse Buffer, and plates are spun down as before. Supernatants are aspirated and remaining pellets are washed in FACs buffer (PBS+1% FBS). After a final spin, the supernantants are removed and pellets are resuspended in 180 μl of FACs buffer. Samples are transferred to a 96 well plate suitable to be run on the HTS 96 well system on the BD LSR II flow cytometer.
Using appropriate excitation and emission wavelengths for the fluorophores used, data are acquired and percent positive cell values are obtained using Cell Quest Software. Results are initially analyzed by FACS analysis software (Flow Jo). […] The IC50 values are calculated using XLfit software version 3, equation 201.
Representative compound data for this assay are listed below in Table II.

[1] = CD69-positive, CD20-positive cells after anti-IgM stimulation, human whole blood, 20 hours

IC50 [1] [nM]	SMILES	IC50 (Homo sapiens, 20 h) [nM]
189	CC(=O)N1CCC(c2ccc(Nc3cc(-c4cccc(-n5ncc6cc(C(C)(C)C)cc(F)c6c5=O)c4CO)nn(C)c3=O)nc2)CC1 [I-63, 2-(3-(5-(5-(1-acetylpiperidin-4-yl)pyridin-2-ylamino)-1-methyl-6-oxo-1,6-dihydropyridazin-3-yl)-2-(hydroxymethyl)phenyl)-6-tert-butyl-8-fluorophthalazin-1(2H)-one]	
32	CN1CCC(c2ccc(Nc3cc(-c4cccc(-n5ccc6cc(C(C)(C)C#N)cc(F)c6c5=O)c4CO)nn(C)c3=O)nc2)CC1 [I-71, 2-(8-Fluoro-2-{2-hydroxymethyl-3-[1-methyl-5-(1′-methyl-1′,2′,3′,4′,5′,6′-hexahydro-[3,4′]bipyridinyl-6-ylamino)-6-oxo-1,6-dihydro-pyridazin-3-yl]-phenyl}-1-oxo-1,2-dihydro-isoquinolin-6-yl)-2-methyl-propionitrile]	
56	Cn1nc(Nc2cc(-c3cccc(-n4ccc5cc(C(C)(C)C#N)cc(F)c5c4=O)c3CO)nn(C)c2=O)cc1CN1CCC1 [I-72, 2-(2-{3-[5-(5-Azetidin-1-ylmethyl-1-methyl-1H-pyrazol-3-ylamino)-1-methyl-6-oxo-1,6-dihydro-pyridazin-3-yl]-2-hydroxymethyl-phenyl}-8-fluoro-1-oxo-1,2-dihydro-isoquinolin-6-yl)-2-methyl-propionitrile]	
30	Cn1nc(-c2cccc(-n3ccc4cc(C(C)(C)C#N)cc(F)c4c3=O)c2CO)cc(Nc2ccc(OC(C)(C)CN3CCC3)cn2)c1=O [I-73, 2-[2-(3-{5-[5-(2-Azetidin-1-yl-1,1-dimethyl-ethoxy)-pyridin-2-ylamino]-1-methyl-6-oxo-1,6-dihydro-pyridazin-3-yl}-2-hydroxymethyl-phenyl)-8-fluoro-1-oxo-1,2-dihydro-isoquinolin-6-yl]-2-methyl-propionitrile]	
34	CN1CCn2nc(Nc3cc(-c4cccc(-n5ccc6cc(C(C)(C)C#N)cc(F)c6c5=O)c4CO)nn(C)c3=O)cc2C1 [I-74, 2-(8-Fluoro-2-{2-hydroxymethyl-3-[1-methyl-5-(5-methyl-4,5,6,7-tetrahydro-pyrazolo[1,5-a]pyrazin-2-ylamino)-6-oxo-1,6-dihydro-pyridazin-3-yl]-phenyl}-1-oxo-1,2-dihydro-isoquinolin-6-yl)-2-methyl-propionitrile]	
180	CN(C)C(=O)c1ccc(Nc2cc(-c3cccc(-n4ccc5cc(C(C)(C)C#N)cc(F)c5c4=O)c3CO)nn(C)c2=O)nc1 [I-75, 6-(6-{3-[6-(Cyano-dimethyl-methyl)-8-fluoro-1-oxo-1H-isoquinolin-2-yl]-2-hydroxymethyl-phenyl}-2-methyl-3-oxo-2,3-dihydro-pyridazin-4-ylamino)-N,N-dimethyl-nicotinamide]	
51	CN1CCC[C@H]1c1ccc(Nc2cc(-c3cccc(-n4ccc5cc(C(C)(C)C#N)cc(F)c5c4=O)c3CO)nn(C)c2=O)nc1 [I-76, 2-[8-Fluoro-2-(2-hydroxymethyl-3-{1-methyl-5-[5-((S)-1-methyl-pyrrolidin-2-yl)-pyridin-2-ylamino]-6-oxo-1,6-dihydro-pyridazin-3-yl}-phenyl)-1-oxo-1,2-dihydro-isoquinolin-6-yl]-2-methyl-propionitrile]	
123	CN1CC[C@@H](c2ccc(Nc3cc(-c4cccc(-n5ccc6cc(C(C)(C)C#N)cc(F)c6c5=O)c4CO)nn(C)c3=O)nc2)C1 [I-77, 2-[8-Fluoro-2-(2-hydroxymethyl-3-{1-methyl-5-[5-((S)-1-methyl-pyrrolidin-3-yl)-pyridin-2-ylamino]-6-oxo-1,6-dihydro-pyridazin-3-yl}-phenyl)-1-oxo-1,2-dihydro-isoquinolin-6-yl]-2-methyl-propionitrile]	

Second part, the compound before the results:

SMILES	IC50 [1] [nM]	IC50 (Homo sapiens, 20 h) [nM]
Cn1nc(-c2cccc(-n3ncc4cc(C(C)(C)C)cc(F)c4c3=O)c2CO)cc(Nc2ccc(C3CCNCC3)cn2)c1=O [I-61, 6-tert-butyl-8-fluoro-2-(2-(hydroxymethyl)-3-(1-methyl-6-oxo-5-(5-(piperidin-4-yl)pyridin-2-ylamino)-1,6-dihydropyridazin-3-yl)phenyl)phthalazin-1(2H)-one]	74	
Cn1nc(-c2cccc(-n3ncc4cc(C(C)(C)C)cc(F)c4c3=O)c2CO)cc(Nc2ccc(C3CCN(S(C)(=O)=O)CC3)cn2)c1=O [I-62, 6-tert-butyl-8-fluoro-2-(2-(hydroxymethyl)-3-(1-methyl-5-(5-(1-(methylsulfonyl)-piperidin-4-yl)pyridin-2-ylamino)-6-oxo-1,6-dihydropyridazin-3-yl)phenyl)phthalazin-1(2H)-one]	144	
Cn1nc(-c2cccc(-n3ncc4cc(C(C)(C)C)cc(F)c4c3=O)c2CO)cc(Nc2ccc(N3CCC(C)(O)CC3)cn2)c1=O [I-64, 6-tert-butyl-8-fluoro-2-(3-(5-(5-(4-hydroxy-4-methylpiperidin-1-yl)pyridin-2-ylamino)-1-methyl-6-oxo-1,6-dihydropyridazin-3-yl)-2-(hydroxymethyl)-phenyl)phthalazin-1(2H)-one]	66	
Cn1nc(-c2cccc(-n3ncc4cc(C(C)(C)C)cc(F)c4c3=O)c2CO)cc(Nc2ccc(N3CCC(O)CC3)cn2)c1=O [I-65, 6-tert-butyl-8-fluoro-2-(2-(hydroxymethyl)-3-(5-(5-(4-hydroxypiperidin-1-yl)pyridin-2-ylamino)-1-methyl-6-oxo-1,6-dihydropyridazin-3-yl)phenyl)phthalazin-1(2H)-one]	62	
CN1C[C@H]2CC[C@@H](C1)N2c1ccc(Nc2cc(-c3cccc(-n4ncc5cc(C(C)(C)C)cc(F)c5c4=O)c3CO)nn(C)c2=O)nc1 [I-66, 6-tert-Butyl-8-fluoro-2-(2-hydroxymethyl-3-{1-methyl-5-[5-((1R,5S)-3-methyl-3,8-diaza-bicyclo[3.2.1]oct-8-yl)-pyridin-2-ylamino]-6-oxo-1,6-dihydro-pyridazin-3-yl}-phenyl)-2H-phthalazin-1-one]	23	
CN1CCC(c2ccc(Nc3cc(-c4cccc(-n5ncc6cc(C(C)(C)C)cc(F)c6c5=O)c4CO)nn(C)c3=O)nc2)CC1 [I-67, 6-tert-Butyl-8-fluoro-2-{2-hydroxymethyl-3-[1-methyl-5-(1′-methyl-1′,2′,3′,4′,5′,6′-hexahydro-[3,4]bipyridinyl-6-ylamino)-6-oxo-1,6-dihydro-pyridazin-3-yl]-phenyl}-2H-phthalazin-1-one]		4
Cn1nc(-c2cccc(N3CCc4cc(C(C)(C)C#N)cc(F)c4C3=O)c2CO)cc(Nc2ccc(OC(C)(C)CN3CCC3)cn2)c1=O [I-78, 2-[2-(3-{5-[5-(2-azetidin-1-yl-1,1-dimethyl-ethoxy)-pyridin-2-ylamino]-1-methyl-6-oxo-1,6-dihydro-pyridazin-3-yl}-2-hydroxymethyl-phenyl)-8-fluoro-1-oxo-1,2,3,4-tetrahydro-isoquinolin-6-yl]-2-methyl-propionitrile]	84	
Cn1nc(-c2cccc(-n3ccc4cc(C(C)(C)C#N)cc(F)c4c3=O)c2CO)cc(Nc2cc3n(n2)CCN(C2COC2)C3)c1=O [I-79, 2-(8-Fluoro-2-{2-hydroxymethyl-3-[1-methyl-5-(5-oxetan-3-yl-4,5,6,7-tetrahydro-pyrazolo[1,5-a]pyrazin-2-ylamino)-6-oxo-1,6-dihydro-pyridazin-3-yl]-phenyl}-1-oxo-1,2-dihydro-isoquinolin-6-yl)-2-methyl-propionitrile]	60	
